Common to all, as to format: cell-based
Assay [1] concerns histone H3 hyperacetylation in HeLa cervical carcinoma cells. The assay can be described thus: Cellular histone H3 hyperacetylation assay. As to conditions: Homo sapiens, 24 h, range stated for the listed group, read-out: Induction of histone H3 hyperacetylation EC50. The source says:
To assess the cellular efficacy of a histone deacetylase inhibitor in vitro, an assay was set up in black clear-bottom 96-well plates and optimized for use on the Cellomics “ArrayScan II” platform for a quantitative calculation of histone acetylation. The protocol uses a polyclonal rabbit antibody, specifically binding to acetylated lysine 23 or, alternatively, acetylated lysine 9+14 of human histone H3 on fixed cells with an Alexa Fluor 488 labeled goat anti rabbit-IgG used for counterstaining (modified from Braunger et al. AACR annual conference 2003, Abstract 4556). 5×10^3 HeLa cervical carcinoma cells/well (ATCC CCL-2) in 200 μl Dulbecco's modified Eagle's medium (DMEM) containing 10% fetal calf serum are seeded at day 1 in Packard view plates and incubated for 24 h under standard cell culture conditions. On day 2, 1 μl test compound (200× final concentration) is added and incubation continued for further 24 h. On day 3, the culture medium is discarded and attached cells fixed for 15 min at room temperature by addition of 100 μl fixation buffer (3.7% v:v formaldehyde in phosphate buffered saline/PBS). After discarding the fixation buffer and one wash with blocking solution (1% BSA, 0.3% Tween 20 in PBS), cells are permeabilized at room temperature by addition of 100 μl/well permeabilization buffer (30.8 mM NaCl, 0.54 mM Na2HPO4, 0.31 mM KH2PO4, 0.1% v:v […]) for 15 min at room temperature. After discarding the permeabilization buffer and washing twice with 100 μl/well blocking solution at room temperature, the 1st antibody (anti-K23 histone H3 antibody, Cell Signaling No. 9674 or, alternatively, anti-K9+14 histone H3 antibody, Calbiochem No. 382158) in blocking solution (50 μl/well) is added. After incubation for 1 h at room temperature, the wells are washed twice at room temperature with 100 μl/well blocking solution before addition of the 2nd antibody (goat-anti-rabbit Alexa Fluor 488; MoBiTec No. A-11008) in blocking solution (50 μl/well). After further incubation for 1 h at room temperature, wells are washed twice with 100 μl/well blocking solution at room temperature. Finally, 100 μl/well PBS are added and image analysis performed on the Cellomics “ArrayScan II” platform. For EC50 determination, the percentage of positive cells showing nuclear fluorescence is determined and EC50 calculation done from concentration-effect curves by means of non-linear regression. For calibration, a positive (reference HDAC inhibitors like SAHA or NVP LBH-589) and a negative control were included.

The test system of assay [2] is HeLa cervical carcinoma cells. Put plainly: Cellular cytotoxicity assay (Alamar Blue), HeLa. The settings on record: Homo sapiens, 72 h, range stated for the listed group. How it is done: (§1) The anti-proliferative activity of the histone deacetylase inhibitory compounds as described herein, was evaluated using the following cell lines: HeLa and HeLa—KB (cervical carcinoma), H460 (non small cell lung cancer), A549 (non-small cell lung cancer), MCF7 (breast carcinoma), MCF10A (normal, non tumorigenic breast epithelial), MDA-MB468 (breast carcinoma), MDA-MB435 (breast carcinoma), MDA-MB231 (breast carcinoma), SKBR-3 (breast carcinoma), SKOV-3 (ovarial carcinoma), A-2780 (ovarial carcinoma), RKO (colon carcinoma), HCT-15 (colon carcinoma), HCT-116 (colon carcinoma), PC3 (prostate carcinoma), BPH1 (benign prostate hyperplasia), AsPC1 (pancreatic carcinoma), Cal27 (tongue carcinoma), A-431 (vulva carcinoma), HeclA (endometrial carcinoma), Saos-2 (osteosarcoma), U87MG (glioblastoma), WM266-4 (melanoma), K562 (chronic myeloid carcinoma), EOL1 (acute hypereosinophilic myeloid leukemia), CCRF-CEM and CCRF-CEM VCR1000 (acute lymphoblastic leukemia sensitive and resistant towards Vincristine). For quantification of cellular proliferation/living cells the Alamar Blue (Resazurin) cell viability assay was applied (O'Brien et al. Eur J Biochem 267, 5421-5426, 2000). In this assay Resazurin is reduced to the fluorescent resorufin by cellular dehydrogenase activity, correlating with viable, proliferating cells. The examples were dissolved as 20 mM solutions in dimethylsulfoxide (DMSO) and subsequently diluted in semi-logarithmic steps. Cell lines were seeded at respective density into 96 well flat bottom plates in a volume of 200 μl per well. 24 hours after seeding 1 μl each of the compound dilutions were added into each well of the 96 well plate. Each compound dilution was tested as quadruplicates. Wells containing untreated control cells were filled with 200 μl DMEM medium containing 0.5% v:v DMSO. The cells were then incubated with the substances for 72 hours at 37° C. in a humidified atmosphere containing 5% carbon dioxide. To determine the viability of the cells, 20 μl of an Resazurin solution (Sigma; 90 mg/l) were added. After 4 hours incubation at 37° C. the fluorescence was measured at an extinction of 544 nm and an emission of 590 nm. For the calculation of the cell viability the emission value from untreated cells was set as 100% viability and the emission rates of treated cells were set in relation to the values of untreated cells. Viabilities were expressed as % values. The corresponding IC50 values of the compounds for cytotoxic activity are determined from the concentration-effect curves by means of non-linear regression.
In general terms: Resazurin is reduced to fluorescent resorufin, in cell work by metabolically active cells.

The test system of assay [3] is MDA-MB468 breast cancer cells. The assay can be described thus: Breast cancer cell differentiation assay (Nile Red, flow cytometry). As to conditions: 24 h; for Neutral & phospholipids (%): differentiated cells; for Phospholipids (%): undifferentiated cells. On the procedure:
For quantification of MDA-MB468 breast cancer cell differentiation (described by Munster et al. Canc. Res. 61(23), pp 8492, 2001), 1× E6 cells were seeded in 10 cm cell culture dishes and, after cultivation for 24 h, treated with HDI for further 24 h. Finally, cells were collected by trypsination, washed twice with PBS and resuspended in 1 ml of staining solution ([…] Nile Red in PBS). After incubation for at least 5 min at room temperature, cells were analysed by flow cytometry on a FACS Calibur device (Ex 488 nm, Em. at 530 nm/FL-1 and >630 nm/FL-3). From respective histograms the percentage of cells with fluorescence at 650 nm (phospholipids) and 530 nm+650 nm (phospho- and neutral lipids) were calculated. For microscopic analysis, MDA-MB468 cells were cultivated on two-well chamber slides, treated with test compound for 24 h, fixed with 1.5 vol % glutaraldehyde/PBS and finally treated with staining solution. After washing with PBS, cells were analysed by fluorescence microscopy.
The percentage of differentiated cells with neutral and phospholipids as well as undifferentiated cells with phospholipids only are summarized in the table 5.

The subject of assay [4] is RKO colon carcinoma cells. The assay can be described thus: Cell-cycle dependent cytotoxicity, RKO exop21 cell system. As to conditions: Homo sapiens, 72 h, range stated for the listed group. On the procedure:
For determination of cell-cycle dependent cytotoxicity, the RKO exop21 cell system was applied (Schmidt et al. Oncogene 19: 2423-2429, 2000). Briefly, RKO cells with/without p21^waf1 expression (2×10^4 cells/well induced, 6×10^3 cells/well not induced) were treated with the examples for 72 h and metabolic activity quantified as described before. The expression of p21^waf1 was induced by treatment with Pronasterone A, causing a complete proliferation arrest of RKO cells in the G1 and G2 phases of the cell division cycle.

In assay [5] the test system is A549 cell line. Put plainly: Combination experiment with Trail in A549. As to conditions: example at about its IC50 combined with Trail. On the procedure:
A549 non-small cell lung cancer, MDA-MB468 breast cancer and […] colorectal cancer cell lines were pretreated with the examples for 4 h before adding the chemotherapeutic agents or Trail and further incubation for 72 h total. The IC50 values of these combinations were determined from concentration-effect curves and compared to IC50 values of cell treated with the anti-cancer agent only.

For assay [6], the system named is broad selection of non-malignant cell lines and fully transformed malignant cancer cell lines. Put plainly: Anti-proliferative activity across cell line panel (Alamar Blue). As to conditions: mean over non-malignant and malignant cell lines. On the procedure:
as §1

[7] abbreviates: arrested RKO cells, p21waf1 expressed, read-out: RKO arrested (p21^waf1 expressed) IC50.
Setting [8] is: proliferating RKO cells, read-out: RKO proliferating IC50.

Where two headings read alike, the source gives them in different places.

The EC50 is the concentration giving half of the maximal effect. The term IC50 denotes the concentration that inhibits the measured activity by half.

With `CN(C)c1ccc(S(=O)(=O)n2ccc(/C=C/C(=O)NO)c2)cc1` [Compound 4, (E)-3-[1-(4-Dimethylamino-benzenesulfonyl)-1H-pyrrol-3-yl]-N-hydroxy-acrylamide], the EC50 in assay [1] was 2.15 to 51.3 µM. This compound also had an IC50 in assay [2] of 800 to 21600 nM.

Consider `O=C(C=Cc1ccn(S(=O)(=O)Cc2ccccc2)c1)NO` [Compound 2, N-Hydroxy-3-(1-phenylmethanesulfonyl-1H-pyrrol-3-yl)-acrylamide], for which the concentration for a half-maximal effect (EC50) in assay [1] lay in the range of 2.15 to 51.3 µM. This compound also yielded an IC50 in assay [2] of 800 to 21600 nM.

With `Nc1ccccc1NC(=O)/C=C/c1ccn(S(=O)(=O)c2ccc(-c3ccccc3)cc2)c1` [Compound 7, (E)-N-(2-Amino-phenyl)-3-[1-(biphenyl-4-sulfonyl)-1H-pyrrol-3-yl]-acrylamide], in assay [1], the EC50 was in the range of 2.15 to 51.3 µM. This compound had an IC50 in assay [2] of 800 to 21600 nM.

With `CN(CCc1cc2ccccc2[nH]1)Cc1ccc(S(=O)(=O)n2ccc(/C=C/C(=O)NO)c2)cc1` [Compound 9, (E)-N-Hydroxy-3-(1-[4-(([2-(1H-indol-2-yl)-ethyl]-methyl-amino)-methyl)-benzenesulfonyl]-1H-pyrrol-3-yl)-acrylamide], the figures for the “Neutral & phospholipids (%)” value in assay [3] (3 μM) and in assay [3] (6 μM) were 71.2% and 64.6%, respectively. The “Phospholipids (%)” value is recorded as 25.3% in assay [3] (3 μM) and 27.9% in assay [3] (6 μM). For the same compound, the IC50 is 70 to 5000 nM in assay [2], 450 to 15000 nM in assay [4] (setting [7]), 150 to 5100 nM in assay [4] (setting [8]) and 3.7 µM in assay [6]. Besides, in assay [5], the “Effect of combination with Trail” value is “synergism is highly likely”.

For `O=C(/C=C/c1ccn(S(=O)(=O)c2ccc(-c3ccccn3)s2)c1)NO` [Compound 24, (E)-N-Hydroxy-3-[1-(5-pyridin-2-yl-thiophene-2-sulfonyl)-1H-pyrrol-3-yl]-acrylamide], the EC50 in assay [1] fell in the range of 0.08 to 16 µM. The “Neutral & phospholipids (%)” value in assay [3] (0.8 μM) was 67.3%. The “Phospholipids (%)” value in assay [3] (0.8 μM) worked out at 27.9%. Also, the IC50 was 70 to 5000 nM in assay [2], 450 to 15000 nM in assay [4] (setting [7]), 150 to 5100 nM in assay [4] (setting [8]) and 0.57 µM in assay [6]. Further, the “Effect of combination with Trail” value in assay [5] is on record as “synergism is highly likely”.

As for `CN(C)Cc1ccc(S(=O)(=O)n2ccc(/C=C/C(=O)NO)c2)cc1` [Compound 10, (E)-3-[1-(4-Dimethylaminomethyl-benzenesulfonyl)-1H-pyrrol-3-yl]-N-hydroxy-acrylamide], the results for the “Neutral & phospholipids (%)” value in assay [3] (2 μM) and in assay [3] (5 μM) were 55.5% and 70.2%, respectively. The results for the “Phospholipids (%)” value in assay [3] (2 μM) and in assay [3] (5 μM) were 41.6% and 25.2%, respectively. Besides, the IC50 is 70 to 5000 nM in assay [2], 450 to 15000 nM in assay [4] (setting [7]), 150 to 5100 nM in assay [4] (setting [8]) and 4.6 µM in assay [6]. Moreover, the “Effect of combination with Trail” value in assay [5] is given as “synergism is highly likely”.

The values above are taken from patent US8188138B2, “Sulphonylpyrrole hydrochloride salts as histone deacetylases inhibitors” (4SC AG, priority 2005, dated 2012).
